From patent US7601494B2, “Method of screening candidate compounds for susceptibility to biliary excretion” (The University of North Carolina at Chapel Hill, priority 1999, dated 2009)
“Also recorded” adds a separate entry of the source. Read-outs that look alike come from different tables or passages of the source.

Tests used:
[1] = test system: short-term cultured hepatocytes; assay: Cumulative uptake in 3-hr (short-term) cultured hepatocyte monolayers, standard vs Ca2+-free buffer; format: in vitro ADME, rat; conditions: for cumulative uptake in standard buffer compared to Ca2+-free buffer: 3-hr cultured hepatocytes
Protocol: Hepatocytes were isolated with a two-step perfusion method. Briefly, rats were anesthetized with ketamine and xylazine (60 and 12mg/kg i.p., respectively) prior to portal vein cannulation. The liver was perfused in situ with oxygenated Ca^2+-free Krebs-Henseleit bicarbonate buffer containing collagenase type 1 (0.5 mg/ml) for 10 min. The hepatic capsule was removed with forceps. The hepatocytes were released by shaking the liver gently in 100 ml DMEM.
The released cells were filtered through a sterile nylon mesh (70-μm). The hepatocyte suspensions were centrifuged at 50 xg for 3 min. The cell pellet was resuspended in 25 ml DMEM and an equal volume of 90% isotonic polyvinylpyrrolidone-coated silica colloid centrifugation medium (pH 7.4) sold under the registered trademark PERCOLL® by Pharmacia, Inc. of Piscataway, N.J. The resulting cell suspension was centrifuged at about 70 to about 150 xg for 5 min. The pellet was resuspended in 50 ml DMEM and the cell suspensions were combined into one tube followed by centrifugation at 50 xg for 3 min. Hepatocyte viability was determined by trypan blue exclusion. Only those hepatocyte preparations with viability greater than 90% were utilized for further studies.
Hepatocyte suspensions were prepared with DMEM containing 5% fetal calf serum, 1 μM dexamethasone and 4 mg/L insulin. Hepatocyte suspensions were added to the precoated dishes at a density of about 2-3×10^6 cells/60-mm dish. Approximately 1 hr after plating the cells, the medium was aspirated and 3-ml fresh DMEM was added. For transport studies, hepatocytes that had been seeded for 3-5 hr without collagen overlay were defined as 3-hr or short-term cultured hepatocytes.
(§1) Hepatocytes cultured in a collagen-sandwich configuration were incubated in 3 ml standard buffer or Ca^2+-free buffer at 37° C. for 10 min. After removing the incubation buffer, uptake was initiated by addition of 3 ml standard buffer containing substrate to each dish. After incubation for designated times, cumulative uptake was terminated by aspirating the incubation solution and rinsing 4 times with 3 ml ice-cold standard buffer to remove extracellular substrate. After washing, 2 ml of 1% Triton X-100 solution was added to culture dishes, and the cells were lysed by shaking the dish on a shaker for 20 min at room temperature. An aliquot (1 ml) of lysate was analyzed by liquid scintillation spectrometry. Bio-Rad DC Protein Assay Kit (Bio-Rad Laboratories, Hercules, Calif.) was used to determine the protein concentration in the culture extracts using bovine serum albumin as standard. […] All values for substrate uptake into cell monolayers were corrected for nonspecific binding to the collagen by subtracting the substrate uptake determined in the appropriate control dishes in the absence of cells as described previously.
(§2) Uptake data were normalized to the protein content and expressed as mean±SD from 3-4 separate preparations of hepatocytes. Statistical differences between mean values for the 10-min cumulative substrate uptake in the presence and absence of Ca^2+ were determined by the use of the well-known Student's t-test. A P value of <0.05 was considered significant.

[2] = test system: sandwich-cultured hepatocytes; assay: Cumulative uptake, Biliary Excretion Index and in vitro biliary clearance in 96-hr sandwich-cultured hepatocytes; format: in vitro ADME, rat; conditions: for Biliary Excretion Index: Equation 3; for cumulative uptake in standard buffer compared to Ca2+-free buffer: 96-hr cultured hepatocytes
Protocol: To prepare sandwich-cultured hepatocytes, neutralized collagen solution (0.1 ml, about 1.5 to about 3.0 mg/ml, pH 7.4) was added to the monolayers 24 hr after the cells were seeded. […] Medium was changed on a daily basis until the fourth day after the cells were seeded. These hepatocytes were referred to as 96-hr or long-term cultured hepatocytes.
as §1, §2
Biliary excretion of substrates in the monolayers was quantitatively assessed by the Biliary Excretion Index based on Equation 3:
[formula] where Uptakestandard and Uptake Ca^2+-free represent the cumulative uptake of substrate over a 10-min interval in the hepatocyte monolayers pre-incubated in standard buffer and in Ca^2+-free buffer, respectively.
Biliary clearance in the sandwich-cultured hepatocytes, ClB(culture) (ml/min/kg per body weight), was calculated according to Equation 4:
[formula] where Timeincubation was 10 min and Concentrationmedium represented the initial substrate concentration in the incubation medium. In some embodiments, a biliary clearance value can be calculated as the ratio of the mass in the bile canaliculi and the area under the curve (AUC) in culture medium, wherein the AUC represents the integral of candidate compound (e.g. xenobiotic concentration) in the medium from time 0 to time T (time can be measure in any desired units, and is usually measured in minutes). Indeed, the term AUC can refer to the following equation: […]

[3] = cited from earlier work; for percentage of the dose excreted in rat bile: i.v. administration, in 1 hr, unchanged drug; for in vivo biliary clearance: rat, literature values
Mrp2 = assay: Immunoblot analysis of Mrp2 expression in siRNA-treated SCRH; format: cell-based, rat; conditions: 2 μg siRNA per well, 48 hr; for reduction in endogenous Mrp2 expression: vs siFL or non-transfected SCRH, average
Protocol: (§3) HepG2 cells were maintained in Dulbecco's modified Eagle's medium/F-12 plus 10% FBS. Rat hepatocytes were isolated from male Wistar rats (220-300g) by in situ collagenase perfusion (Annaert et al., Drug Metab Dispos 29:1277-1283, 2001). Cells were seeded at a density of 1.5×10^6 cells per well onto polystyrene 6-well plates pre-coated with rat tail type I collagen; a top layer of gelled collagen was overlaid 24 hr after plating. Rat hepatocyte cultures were maintained in Dulbecco's modified Eagle's medium supplemented with 0.1 μM dexamethasone and 0.1% ITS culture supplement (6.25 mg/mL insulin, 6.25 mg/mL transferrin, 6.25 μg/mL selenous acid, 5.35 mg/mL linoleic acid, and […]). Medium was changed every 24 hr.
(§4) HepG2 cells were seeded at a density of 2×10^5 cells per well onto 12-well plates 24 hr before transfection. A mixture of 100 ng firefly luciferase expression plasmid (PGL3-FL) and 100 ng Renilla luciferase expression plasmid (PRL-TK) and various amounts of firefly luciferase siRNA were used per well. Transfections of SCRH were performed at 20 hr after plating, unless specifically indicated. siRNA (2 μg unless specified) was used per well in 6-well plates. siRNA and DNA were formulated for transfection using […]™ transfection reaction kit (QIAGEN Inc. Valencia, Calif. USA). Briefly, siRNA was condensed in Enhancer EC at a ratio of 1:2 (μg of total RNA and/or DNA : μl of Enhancer), and formulated with TransMessenger at a ratio of 1:4 (μg of RNA and /or DNA: μl of TransMessenger) and then incubated with cells. For transfections of HepG2 cells, medium was changed after an overnight incubation with siRNA. For transfections of SCRH, cells were incubated with siRNA for 4 hr and then were overlaid with collagen. siRNA delivery into hepatocytes was more efficient before overlay of the top collagen layer. The effect of transfection was examined 48 hr later.
(§5) Cells were harvested 48 hr post transfection and lysed in 1% SDS, 1 mM EDTA plus COMPLETE™ protease inhibitor cocktail (Roche Diagnostics, Mannheim, Germany). The protein concentration of the clear cell lysate was determined with the BCA Protein Assay Reagent Kit (Pierce Biotech, Inc. Rockford, Ill.). […] of total protein per lane was resolved by electrophoresis on NuPAGE 4-12% Bis-Tris Gel (Invitrogen Life Technology, Carlsbad, Calif. USA) and were transferred onto polyvinylidone difluoride membranes. The following antibodies were used to probe the membranes: anti-Mrp2 (M2111-6, Alexis Biochemicals, San Diego, Calif. USA); anti-Mrp3 (kind gift from Dr. Yuichi Sugiyama); anti-Radixin (Chemicon International, Inc. Temecula, Calif. USA), anti-β-actin (MAB1501, Chemicon).

Mrp3 = assay: Immunoblot analysis of Mrp3 expression in siRNA-treated SCRH; format: cell-based, rat; conditions: immunoblot
Protocol: as §3, §4, §5

radixin = assay: Immunoblot analysis of radixin expression in siRNA-treated SCRH; format: cell-based, rat
Protocol: as §3
as §4, with “For transfections of SCRH, cells were incubated with siRNA for 4 hr and then were overlaid with collagen. siRNA delivery into hepatocytes was more efficient before overlay of the top collagen layer. The effect of transfection was examined 48 hr later.” left out
Cells were harvested 48 hr post transfection and lysed in 1% SDS, 1 mM EDTA plus COMPLETE™ protease inhibitor cocktail (Roche Diagnostics, Mannheim, Germany). The protein concentration of the clear cell lysate was determined with the BCA Protein Assay Reagent Kit (Pierce Biotech, Inc. Rockford, Ill.). […]

in vivo = conditions: rat
Protocol: In vivo biliary clearance, ClB (ml/min/kg body weight), was calculated according to Equation 1:
[formula] where Amountbile(O-T) represents the amount of parent drug recovered in bile from 0 to time T when most drug was eliminated from the systemic circulation, and AUCO-T represents the area under the plasma concentration-time curve from 0 to time T (in minutes).
The in vivo intrinsic biliary clearance (ClBin, ml/min/kg body weight) was estimated according to Equation 2 based on the well-stirred model of hepatic disposition assuming biliary excretion is the predominant elimination pathway (Pang et al., J. Pharmacokinet. Biopharm. 5:625-653, 1977).
[formula] where Q represents rat hepatic plasma/blood flow, 40-70 ml/min/kg of body weight {(blood flow×(1-hematocrit)}; Pollack et al., J. Pharmacol. Exp. Ther. 18:197-202, (1989), and ClB represents biliary clearance for model compounds reported in the literature or calculated from Equation 1.
The five model substrates representing a diverse spectrum of biliary excretion properties were selected to examine the relationship between the percentage of the dose excreted in bile in vivo in rats and the Biliary Excretion Index in sandwich-cultured hepatocytes. Information regarding the percentage of the dose excreted in rat bile after i.v. administration was obtained from the literature.

[4] = 96-hr sandwich-cultured hepatocytes, 10-min cumulative uptake

Row | Compound | percentage of the dose excreted in rat bile [3] | reduction in endogenous Mrp2 expression (Mrp2) [%] | expression level of Mrp3 (Mrp3) [% non-transfected control] | radixin expression level (radixin) [% non-transfected control] | cumulative uptake in standard buffer compared to Ca2+-free buffer [1] | cumulative uptake in standard buffer compared to Ca2+-free buffer [2] | also measured
1 | inulin | negligible |  |  |  |  |  | cumulative uptake (of initial added substrate) ([1]; short-term cultured hepatocytes, all incubation times, 1 μM): less than 0.01%; Biliary Excretion Index [2, 4]: approximately zero; also recorded: negligible; cumulative uptake (of initial added substrate) ([2]; long-term cultured hepatocytes, all incubation times, 1 μM): less than 0.01%
2 | siMrp2AB2: siRNA targeting rat Mrp2, GGCUAGGAAGCAGUACACCAU (SEQ ID NO: 4) (listed as RNA, chemistry not given here) |  | 40±20 | 96±15 | 100±8 |  |  | 
3 | siMrp2AB3: siRNA targeting rat Mrp2, GGCAGUAGGGUGGUGGUCCAU (SEQ ID NO: 5) (listed as RNA, chemistry not given here) |  | 26±18 | 86±11 | 103±7 |  |  | 
4 | siMrp2AB1: siRNA targeting rat Mrp2, GGCUAUAUCUGUGCAAUCCUA (SEQ ID NO: 3), nucleotides 1158-1178 of Mrp2 cDNA (listed as RNA, chemistry not given here) |  | 50 | 89±11 | 95±17 |  |  | maximum reduction in endogenous Mrp2 expression (Mrp2): 79%
5 | O=C(O)c1ccccc1O [salicylate] | negligible |  |  |  | not significantly different | no effect | Biliary Excretion Index [2, 4]: approximately zero; also recorded: negligible; in vivo biliary clearance [3]: ~0 ml/min per kg body weight
6 | CN(Cc1cnc2nc(N)nc(N)c2n1)c1ccc(C(=O)N[C@@H](CCC(=O)O)C(=O)O)cc1 [methotrexate] | 50-60% |  |  |  | not significantly different | significantly higher | in vitro biliary clearance ([2]; 96-hr sandwich-cultured hepatocytes, 10-min cumulative uptake, Equation 4): 4.1 ± 1.0 mL/min/kg; clearance (in vivo; in vivo intrinsic biliary clearance): ~17.3 mL/min/kg; percentage of the dose excreted in rat bile ([3]; listed as Methotrexate): approximately 60%; in vivo biliary clearance [3]: 12.1 ml/min per kg body weight
7 | CC1(C)SSC(C)(C)[C@@H](NC(=O)[C@@H](N)Cc2ccc(O)cc2)C(=O)NCC(=O)N[C@@H](Cc2ccccc2)C(=O)N[C@H]1C(=O)O [[D-pen^2,5]enkephalin] |  |  |  |  | not significantly different | significantly higher | clearance (in vivo; in vivo biliary clearance, calculated by Equation 1 from data of Chen and Pollack): 18.5 mL/min/kg; clearance (in vivo; in vivo intrinsic biliary clearance, calculated from Equation 2 (well-stirred model)): ~34.4 mL/min/kg
